For the assay, the target named is T1, sGC α1/β1 heterodimer (Homo sapiens, UniProt Q02108+Q02153).
T1 construct: expressed in transfected cells; host or cells: CHO-K1 (clone #7, CHO-K1/sGC)
T1 sequence (Q02108 1-690): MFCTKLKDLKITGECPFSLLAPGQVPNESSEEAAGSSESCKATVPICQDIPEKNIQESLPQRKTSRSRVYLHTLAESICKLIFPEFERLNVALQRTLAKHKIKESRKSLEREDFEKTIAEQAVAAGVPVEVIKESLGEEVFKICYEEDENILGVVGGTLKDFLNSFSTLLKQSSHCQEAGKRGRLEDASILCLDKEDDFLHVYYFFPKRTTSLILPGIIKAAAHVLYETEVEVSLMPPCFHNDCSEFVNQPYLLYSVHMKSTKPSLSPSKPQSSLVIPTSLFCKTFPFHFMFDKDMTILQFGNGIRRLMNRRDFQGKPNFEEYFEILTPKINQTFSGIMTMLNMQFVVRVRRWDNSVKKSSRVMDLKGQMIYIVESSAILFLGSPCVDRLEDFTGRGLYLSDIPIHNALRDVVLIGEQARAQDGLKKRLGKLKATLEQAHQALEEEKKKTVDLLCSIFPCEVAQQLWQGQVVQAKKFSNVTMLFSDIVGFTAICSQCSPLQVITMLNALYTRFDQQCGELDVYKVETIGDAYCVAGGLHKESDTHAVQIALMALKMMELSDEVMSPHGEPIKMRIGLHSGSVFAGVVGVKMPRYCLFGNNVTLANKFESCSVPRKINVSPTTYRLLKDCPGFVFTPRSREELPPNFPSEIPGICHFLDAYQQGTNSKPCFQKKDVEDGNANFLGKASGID
T1 sequence (Q02153 1-619): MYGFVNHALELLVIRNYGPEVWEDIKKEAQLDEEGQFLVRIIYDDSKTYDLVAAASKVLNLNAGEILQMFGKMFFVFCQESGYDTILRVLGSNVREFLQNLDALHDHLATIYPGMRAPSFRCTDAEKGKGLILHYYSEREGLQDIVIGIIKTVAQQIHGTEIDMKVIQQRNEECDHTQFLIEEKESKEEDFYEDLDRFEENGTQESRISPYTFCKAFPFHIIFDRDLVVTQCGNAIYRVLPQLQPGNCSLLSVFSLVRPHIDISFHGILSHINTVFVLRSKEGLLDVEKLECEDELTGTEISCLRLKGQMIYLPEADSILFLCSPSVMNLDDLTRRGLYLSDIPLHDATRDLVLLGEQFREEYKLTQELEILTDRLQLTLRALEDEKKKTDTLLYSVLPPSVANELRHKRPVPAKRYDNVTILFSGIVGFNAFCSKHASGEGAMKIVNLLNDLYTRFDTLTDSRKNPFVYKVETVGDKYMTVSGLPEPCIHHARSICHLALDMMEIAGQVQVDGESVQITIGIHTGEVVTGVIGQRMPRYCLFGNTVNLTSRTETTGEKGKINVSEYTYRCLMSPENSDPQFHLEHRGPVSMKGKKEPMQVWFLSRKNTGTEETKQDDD
The assay is described as follows: Cell-Based sGC Functional Assay (CASA Assay), cGMP by HTRF in CHO-K1/sGC cells. The note with it: for Emax: CHO-K1, percent activation relative to maximum cGMP production of Compound A (= 100%), read-out: % Act.; for EC50: cGMP production, 1 hr at 37° C., 4P fit, presence or absence of 1 μM DETA-NO not given, read-out: IP (nM) (inflection point); for % Act.: percent activation relative to maximum cGMP production of Compound A (= 100%). The source says:
Biological Assay 1: Cell-Based sGC Functional Assay (CASA Assay)
sGC is a heme-containing enzyme that converts GTP to secondary messenger cGMP. Increases in cGMP levels affect several physiological processes including vasorelaxation through multiple downstream pathways. […] Heme-dependent activators (HDAs) preferentially activate sGC containing a ferrous heme group. To determine the effect of sGC activators on enzyme activity, the CASA assay was developed to monitor the generation of cGMP in a cell line that stably expresses the heterodimeric sGC protein.
A CHO-K1 cell line stably expressing the sGC α1/β1 heterodimer was generated using a standard transfection protocol. CHO-K1 cells were transfected with plasmids pIREShyghsGCα1 and pIRESneo-hsGCβ1 simultaneously using FUGENE reagent. Clones that stably express both subunits were selected with hygromycin and neomycin for ˜2 weeks. Clone #7 was chosen for the assay and was designated CHO-K1/sGC. CHO-K1/sGC cells were maintained in F-K12 medium containing 10% heat-inactivated Fetal Bovine Serum (FBS), 100 μg/mL penicillin/streptomycin, 0.5 mg/mL hygromycin and 0.25 mg/mL G418. The cells were then cryopreserved in LN2. On the day of the assay, cells were thawed and resuspended in EBSS Assay Buffer (Sigma, E3024) supplemented with 5 mM MgCl2, 10 mM HEPES (4-(2-hydroxyethyl)piperazine-1-ethanesulfonic acid) and 0.05% BSA (bovine serum albumin) (EAB) and cell density was then adjusted to 4×10^5/mL with EAB. IBMX (3-isobutyl-1-methylxanthin, 0.5 mM) was added to inhibit degradation of cGMP. Compounds were diluted from DMSO stock solutions and added to the assay at a final DMSO concentration of 2.5%. Cells were incubated with compounds in the presence and absence of 1 μM of Diethylenetriamine/nitric oxide adduct (DETA-NO; Sigma, 17018) for 1 hr at 37° C. At the end of the incubation period, the reaction was terminated and the cells were lysed with the detection reagents from Cisbio Kits. The level of intracellular cGMP was determined using an HTRF-based assay kit (CisBio, 62GM2PEC), which detects the displacement of a fluorescence labeled cGMP from its specific antibody. The cGMP produced by test compounds was directly compared to the maximum cGMP production (this value was set to equal 100% activation.) of the published sGC-HDA Compound A:
[drawing 175] (Example 1 in WO 2010/065275, published Jun. 10, 2010). The test compounds' activities were then expressed as a percentage of Compound A, the standard in every experiment. This percent activation was calculated either in the presence or absence of DETA-NO which was then plotted. IP and maximum fold induction was derived using ADA analysis software for 4P fit.
The compounds in the Examples of the instant invention had inflection points (IP) less than or equal to 10 μM and most less than or equal to about 1 μM.
In general terms: TR-FRET usually uses a lanthanide donor and a delayed reading to cut background.

Each structure is given as a SMILES string.

For `CC1(c2ccc(F)cn2)C(=O)Nc2nc(-c3cn4ccnc4c(CCC(F)(F)C(F)(F)F)n3)nc(C3CC3)c21` (stereo not drawn) [Example 71B, 4-Cyclopropyl-5-(5-fluoropyridin-2-yl)-5-methyl-2-(8-(3,3,4,4,4-pentafluorobutyl)imidazo[1,2-a]pyrazin-6-yl)-5H-pyrrolo[2,3-d]pyrimidin-6(7H)-one], the Emax is 135% and the EC50 came out at 23 nM.

For `CCCCc1nc(-c2nc3c(c(C4CC4)n2)C(C)(c2ccc(F)cn2)C(=O)N3)cn2ccnc12` (stereo not drawn) [Example 72B, 2-(8-butylimidazo[1,2-a]pyrazin-6-yl)-4-cyclopropyl-5-(5-fluoropyridin-2-yl)-5-methyl-5H-pyrrolo[2,3-d]pyrimidin-6(7H)-one], the Emax stood at 179% and the EC50 stood at 81 nM.

As to `O=C1Nc2nc(-c3cn4ccnc4c(CCCC(F)(F)F)n3)nc(O)c2C1(c1ccc(Cl)c(F)c1)C1CC1` (stereo not drawn) [Example 22A, 5-(4-chloro-3-fluorophenyl)-5-cyclopropyl-4-hydroxy-2-(8-(4,4,4-trifluorobutyl)imidazo[1,2-a]pyrazin-6-yl)-5H-pyrrolo[2,3-d]pyrimidin-6(7H)-one], the Emax came to 126% and the EC50 was 438 nM.

On to `O=C1Nc2nc(-c3cn4ccnc4c(Cc4ccc(F)cc4)n3)ncc2C1(C(=O)NC1CC1)C1CC1` (single isomer, unassigned) [Example 68B, N,5-dicyclopropyl-2-(8-(4-fluorobenzyl)imidazo[1,2-a]pyrazin-6-yl)-6-oxo-6,7-dihydro-5H-pyrrolo[2,3-d]pyrimidine-5-carboxamide], for which the EC50 was 83 nM and the “% Act.” value is recorded as 120%.

Regarding `CCc1nc(-c2cn3ccnc3c(CCC(F)(F)C(F)(F)F)n2)nc2c1C(C)(c1ccc(F)cc1)C(=O)N2` (stereo not drawn) [Example 76A, 4-ethyl-5-(4-fluorophenyl)-5-methyl-2-(8-(3,3,4,4,4-pentafluorobutyl)imidazo [1,2-a]pyrazin-6-yl)-5H-pyrrolo[2,3-d]pyrimidin-6(7H)-one], the Emax was 130% and the EC50 stood at 95 nM.

Regarding `CCCOc1nc(-c2ncc3c(n2)NC(=O)C3(C)c2ccc(F)cc2)cn2ccnc12` (stereo not drawn) [Example 92A, 5-(4-Fluorophenyl)-5-methyl-2-(8-propoxyimidazo[1,2-a]pyrazin-6-yl)-5H-pyrrolo[2,3-d]pyrimidin-6(7H)-one], the Emax was 83% and the EC50 was 282 nM.

With `Cc1nc(-c2cn3ccnc3c(CCC(F)(F)C(F)(F)F)n2)nc2c1C(C)(c1ccc(F)cc1)C(=O)N2` (stereo not drawn) [Example 77A, 5-(4-fluorophenyl)-4,5-dimethyl-2-(8-(3,3,4,4,4-pentafluorobutyl)imidazo [1,2-a]pyrazin-6-yl)-5H-pyrrolo[2,3-d]pyrimidin-6(7H)-one], the Emax came to 117% and the EC50 is 170 nM.

With `CCCCc1nc(-c2nc(O)c3c(n2)NC(=O)C3(C)c2ccc(F)cn2)cn2ccnc12` (stereo not drawn) [Example 83B, 2-(8-butylimidazo[1,2-a]pyrazin-6-yl)-5-(5-fluoropyridin-2-yl)-4-hydroxy-5-methyl-5H-pyrrolo[2,3-d]pyrimidin-6(7H)-one], the Emax is 109% and the EC50 was 234 nM.

Turning to `CCCCc1nc(-c2nc(O)c3c(n2)NC(=O)C3(C)c2ccc(F)cc2)cn2ccnc12` (stereo not drawn) [Example 79A, 2-(8-Butylimidazo[1,2-a]pyrazin-6-yl)-5-(4-fluorophenyl)-4-hydroxy-5-methyl-5H-pyrrolo[2,3-d]pyrimidin-6(7H)-one], the Emax came out at 100% and the EC50 worked out at 133 nM.

For the compound `CC1(c2ccc(Cl)cn2)C(=O)Nc2nc(-c3cn4ccnc4c(CC4CCC4)n3)ncc21` (stereo not drawn) [Example 58A, 5-(5-chloropyridin-2-yl)-2-(8-(cyclobutylmethyl)imidazo[1,2-a]pyrazin-6-yl)-5-methyl-5H-pyrrolo[2,3-d]pyrimidin-6(7H)-one], the Emax turned out to be 150% and the EC50 was determined as 81 nM.

Turning to `CCCCc1nc(-c2ncc3c(n2)NC(=O)C3(c2ccc(Cl)c(F)c2)C2CC2)cn2ccnc12` (stereo not drawn) [Example 47A, 2-(8-butylimidazo[1,2-a]pyrazin-6-yl)-5-(4-chloro-3-fluorophenyl)-5-cyclopropyl-5H-pyrrolo[2,3-d]pyrimidin-6(7H)-one], the Emax is 123% and the EC50 amounted to 11 nM.

As for `COCCOc1nc(-c2cn3ccnc3c(CCC(F)(F)C(F)(F)F)n2)nc2c1C(C)(c1ccc(F)cc1)C(=O)N2` (stereo not drawn) [Example 88A, 5-(4-Fluorophenyl)-4-(2-methoxyethoxy)-5-methyl-2-(8-(3,3,4,4,4-pentafluorobutyl)imidazo[1,2-a]pyrazin-6-yl)-5H-pyrrolo[2,3-d]pyrimidin-6(7H)-one], the Emax came to 100% and the EC50 is 38 nM.

Turning to `O=C1Nc2nc(-c3cn4ccnc4c(CCC(F)(F)C(F)(F)F)n3)ncc2C1(c1ccc(F)cc1)C1CC1` (stereo not drawn) [Example 11B, 5-cyclopropyl-5-(4-fluorophenyl)-2-(8-(3,3,4,4,4-pentafluorobutyl)imidazo[1,2-a]pyrazin-6-yl)-5H-pyrrolo[2,3-d]pyrimidin-6(7H)-one], the Emax was 88% and the EC50 was found to be 66 nM.

With `O=C1Nc2nc(-c3cn4ccnc4c(CCCC(F)(F)F)n3)ncc2C1(c1ccc(Cl)cc1F)C1CC1` (stereo not drawn) [Example 46A, 5-(4-chloro-2-fluorophenyl)-5-cyclopropyl-2-(8-(4,4,4-trifluorobutyl)imidazo[1,2-a]pyrazin-6-yl)-5H-pyrrolo[2,3-d]pyrimidin-6(7H)-one], the Emax amounted to 135% and the EC50 worked out at 10 nM.

For `CC1(C(=O)NC2CC2)C(=O)Nc2nc(-c3cn4ccnc4c(Cc4ccc(F)cc4)n3)ncc21` (single isomer, unassigned) [Example 67B, N-Cyclopropyl-2-(8-(4-fluorobenzyl)imidazo[1,2-a]pyrazin-6-yl)-5-methyl-6-oxo-6,7-dihydro-5H-pyrrolo[2,3-d]pyrimidine-5-carboxamide], the EC50 worked out at 936 nM and the “% Act.” value is 149%.

For the origin of these results see US10213429B2, “Imidazo-pyrazinyl derivatives useful as soluble guanylate cyclase activators” (Merck Sharp & Dohme Corp., priority 2015, dated 2019).
